Reference: patent publication US20060116390A1, “Hepatitis c virus inhibitors” (priority 2003, published 2006)
Like-named read-outs stand apart in the source and are kept apart here.

Test system: HCV proteins in Rep5.1 cells (replicon cell line)
Experiment: Inhibitory activity of HCV: cell-based ELISA in replicon cell line Rep5.1 (decrease of HCV proteins)
Set-up: species or system hepatitis C virus
Settings: Rep5.1 cells, 72 hours with drug
How it was run: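 Rep5.1 replicon cells (5000/well, DMEM-10 with 500 μg/ml G418) were given serially diluted drug 4 h after seeding. After 72 h, cells were fixed in methanol/acetone and HCV proteins detected by cell-based ELISA using replicon-specific patient plasma antibodies. IC50 is the concentration giving 50% protein decrease versus the no-drug control.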

[1] = Hepatitis C virus, 72 h, concentration at which 50% of HCV proteins was decreased, Table 2, read-out: IC50
[2] = Hepatitis C virus, 72 h, decrease of HCV proteins measured by HCV antibody, Table 1, read-out: Level (IC50 values classified)
[3] = concentration at which 50% of HCV proteins was decreased, Table 2, read-out: IC50

| SMILES | IC50 [1] | IC50 [2] | IC50 [3] |
| --- | --- | --- | --- |
| CC1=C(C(=O)OCCc2ccc(F)c(F)c2)C(CO)NC(=S)N1 (stereo not shown) [68″, 4-hydroxymethyl-6-methyl-2-thioxo-1,2,3,4-tetrahydro-pyrimidine-5-carboxylic acid 2-(3,4-difluoro-phenyl)-ethyl ester] | 2.7 µM | 1 to 10 µM | – |
| COCC1=C(C(=O)OCc2ccccc2)CNC(=S)N1 [Compound 64, 6-methoxymethyl-2-thioxo-1,2,3,4-tetrahydro-pyrimidine-5-carboxylic acid benzyl ester] | 15 µM | 10 to 20 µM | – |
| CC(=O)OCC1NC(=S)NC(C)=C1C(=O)OCCCc1cccs1 (stereo not shown) [23″, 4-acetoxymethyl-6-methyl-2-thioxo-1,2,3,4-tetrahydro-pyrimidine-5-carboxylic acid 3-thiophen-2-yl-propyl ester] | 9 µM | 1 to 10 µM | – |
| CC1=C(C(=O)OC2CCCCC2)CNC(=S)N1 [Compound 37, 6-methyl-2-thioxo-1,2,3,4-tetrahydro-pyrimidine-5-carboxylic acid cyclohexyl ester] | 4 µM | 1 to 10 µM | – |
| CC1=C(C(=O)OCc2sccc2C)CNC(=S)N1 [Compound 202, 6-methyl-2-thioxo-1,2,3,4-tetrahydro-pyrimidine-5-carboxylic acid 3-methyl-thiophen-2-ylmethyl ester] | 9 µM | 1 to 10 µM | – |
| CC1=C(C(=O)OCCc2ccc(C)cc2)C(CO)NC(=S)N1 (stereo not shown) [63″, 4-hydroxymethyl-6-methyl-2-thioxo-1,2,3,4-tetrahydro-pyrimidine-5-carboxylic acid 2-p-tolyl-ethyl ester] | 1.6 µM | 1 to 10 µM | – |
| CC1=C(C(=O)OCCc2ccc(F)cc2Cl)C(CF)NC(=S)N1 (stereo not shown) [86′, 4-fluoromethyl-6-methyl-2-thioxo-1,2,3,4-tetrahydro-pyrimidine-5-carboxylic acid 2-(2-chloro-4-fluoro-phenyl)-ethyl ester] | < 0.4 µM | < 1 µM | – |
| CCCCCC(CC)OC(=O)C1=C(C)NC(=S)NC1 (stereo not shown) [Compound 47, 6-methyl-2-thioxo-1,2,3,4-tetrahydro-pyrimidine-5-carboxylic acid 1-ethyl-hexyl ester] | < 0.5 µM | < 1 µM | – |
| COc1ccccc1CCOC(=O)C1=C(C)NC(=S)NC1CF (stereo not shown) [42′, 4-fluoromethyl-6-methyl-2-thioxo-1,2,3,4-tetrahydro-pyrimidine-5-carboxylic acid 2-(2-methoxy-phenyl)-ethyl ester] | 4.1 µM | 1 to 10 µM | – |
| CC1=C(C(=O)OCCc2c(F)cccc2Cl)C(CO)NC(=S)N1 (stereo not shown) [59″, 4-hydroxymethyl-6-methyl-2-thioxo-1,2,3,4-tetrahydro-pyrimidine-5-carboxylic acid 2-(2-chloro-6-fluoro-phenyl)-ethyl ester] | 2.5 µM | 1 to 10 µM | – |
| CC1=C(C(=O)OCC#Cc2cccs2)CNC(=S)N1 [Compound 239, 6-methyl-2-thioxo-1,2,3,4-tetrahydro-pyrimidine-5-carboxylic acid 3-thiophen-2-yl-prop-2-inyl ester] | – | – | < 0.4 µM |
| CCCN(c1ccc(CCOC(=O)C2=C(C)NC(=S)NC2CO)cc1[N+](=O)[O-])C1CC1 (stereo not shown) [95″, 4-Hydroxymethyl-6-methyl-2-thioxo-1,2,3,4-tetrahydro-pyrimidine-5-carboxylic acid 2-[4-(cyclopropyl-propyl-amino)-3-nitro-phenyl]-ethyl ester] | 0.6 µM | < 1 µM | – |
| CC1=C(C(=O)OCc2ccccc2)C(CO)NC(=S)N1 (stereo not shown) [8″, 4-hydroxymethyl-6-methyl-2-thioxo-1,2,3,4-tetrahydro-pyrimidine-5-carboxylic acid benzyl ester] | > 100 µM | > 20 µM | – |
| CC1=C(C(=O)OCc2ccc(OCC(C)C)cc2)CNC(=S)N1 [Compound 72, 6-methyl-2-thioxo-1,2,3,4-tetrahydro-pyrimidine-5-carboxylic acid 4-isobutoxy-benzyl ester] | < 0.5 µM | < 1 µM | – |
| CC1=C(C(=O)OCc2ccc(N(C)C)cc2)CNC(=S)N1 [Compound 79, 6-methyl-2-thioxo-1,2,3,4-tetrahydro-pyrimidine-5-carboxylic acid 4-dimethylamino-benzyl ester] | 1.3 µM | 1 to 10 µM | – |
| CC1=C(C(=O)OCCc2cc(F)cc(F)c2)C(CF)NC(=S)N1 (stereo not shown) [85′, 4-fluoromethyl-6-methyl-2-thioxo-1,2,3,4-tetrahydro-pyrimidine-5-carboxylic acid 2-(3,5-difluoro-phenyl)-ethyl ester] | 2.7 µM | 1 to 10 µM | – |
| CC1=C(C(=O)OCc2ccc3nnn(C)c3c2)CNC(=S)N1 [Compound 242, 6-methyl-2-thioxo-1,2,3,4-tetrahydro-pyrimidine-5-carboxylic acid 3-methyl-3H-benzotriazol-5-ylmethyl ester] | 63 µM | > 20 µM | – |

| SMILES | IC50 [1] | IC50 [2] | IC50 [3] |
| --- | --- | --- | --- |
| CC1=C(C(=O)OCc2cccc(Oc3ccccc3)c2)C(CO)NC(=S)N1 (stereo not shown) [46″, 4-hydroxymethyl-6-methyl-2-thioxo-1,2,3,4-tetrahydro-pyrimidine-5-carboxylic acid 3-phenoxy-benzyl ester] | < 0.4 µM | < 1 µM | – |
| COc1cscc1CCOC(=O)C1=C(C)NC(=S)NC1 [40′, 6-methyl-2-thioxo-1,2,3,4-tetrahydro-pyrimidine-5-carboxylic acid 2-(4-methoxy-thiophen-3-yl)-ethyl ester] | 0.6 µM | < 1 µM | – |
| CC1=C(C(=O)OCc2cccc3ccccc23)CNC(=S)N1 [Compound 10, 6-methyl-2-thioxo-1,2,3,4-tetrahydro-pyrimidine-5-carboxylic acid naphthalen-1-ylmethyl ester] | 1 µM | < 1 µM | – |
| CC1=C(C(=O)OCC2=Cc3ccccc3S2(=O)=O)CNC(=S)N1 [Compound 127, 6-methyl-2-thioxo-1,2,3,4-tetrahydro-pyrimidine-5-carboxylic acid 1,1-dioxo-1H-11^6-benzo[b]thiophen-2-ylmethyl ester] | – | – | 3.5 µM |
| CC1=C(C(=O)OCCc2c[nH]c3ccccc23)CNC(=S)N1 [Compound 102, 6-methyl-2-thioxo-1,2,3,4-tetrahydro-pyrimidine-5-carboxylic acid 2-(1H-indol-3-yl)-ethyl ester] | 2 µM | 1 to 10 µM | – |
| CC1=C(C(=O)OCc2ccc(S(C)(=O)=O)cc2)CNC(=S)N1 [Compound 74, 6-methyl-2-thioxo-1,2,3,4-tetrahydro-pyrimidine-5-carboxylic acid 4-methanesulfonyl-benzyl ester] | > 100 µM | > 20 µM | – |
| CC1=C(C(=O)OCc2cc(F)cc(F)c2)C(CO)NC(=S)N1 (stereo not shown) [71″, 4-hydroxymethyl-6-methyl-2-thioxo-1,2,3,4-tetrahydro-pyrimidine-5-carboxylic acid 3,5-difluoro-benzyl ester] | > 100 µM | > 20 µM | – |
| CC1=C(C(=O)OCCCc2ccc(OCc3ccccc3)cc2)CNC(=S)N1 [Compound 108, 6-methyl-2-thioxo-1,2,3,4-tetrahydro-pyrimidine-5-carboxylic acid 3-(4-benzyloxy-phenyl)-propyl ester] | < 0.4 µM | < 1 µM | – |
| C=CCOCC#CCOC(=O)C1=C(C)NC(=S)NC1 [Compound 245, 6-methyl-2-thioxo-1,2,3,4-tetrahydro-pyrimidine-5-carboxylic acid 4-allyloxy-but-2-inyl ester] | – | – | 2.7 µM |
| CC1=C(C(=O)OCCc2ccsc2)C(c2cnc[nH]2)NC(=S)N1 (stereo not shown) [50′, 4-(3H-imidazol-4-yl)-6-methyl-2-thioxo-1,2,3,4-tetrahydro-pyrimidine-5-carboxylic acid 2-thiophen-3-yl-ethyl ester] | > 100 µM | > 20 µM | – |
| CCCCCCC#CCCOC(=O)C1=C(C)NC(=S)NC1 [Compound 200, 6-methyl-2-thioxo-1,2,3,4-tetrahydro-pyrimidine-5-carboxylic acid dec-3-inyl ester] | – | – | < 0.4 µM |
| CC1=C(C(=O)OCc2cc(Cl)cc(Cl)c2)C(CO)NC(=S)N1 (stereo not shown) [34″, 4-hydroxymethyl-6-methyl-2-thioxo-1,2,3,4-tetrahydro-pyrimidine-5-carboxylic acid 3,5-dichloro-benzyl ester] | 2.6 µM | 1 to 10 µM | – |
| CC1=C(C(=O)OCCSc2nc3ccccc3s2)CNC(=S)N1 [Compound 224, 6-methyl-2-thioxo-1,2,3,4-tetrahydro-pyrimidine-5-carboxylic acid 2-(benzothiazol-2-ylsulfanyl)-ethyl ester] | 0.7 µM | < 1 µM | – |
| CC1=C(C(=O)OCCc2ccc(F)cc2)C(CO)NC(=S)N1 (stereo not shown) [5″, 4-hydroxymethyl-6-methyl-2-thioxo-1,2,3,4-tetrahydro-pyrimidine-5-carboxylic acid 2-(4-fluoro-phenyl)-ethyl ester] | 6 µM | 1 to 10 µM | – |
| CCN(c1ccc(CCOC(=O)C2=C(C)NC(=S)NC2CO)cc1[N+](=O)[O-])C1CC1 (stereo not shown) [94″, 4-Hydroxymethyl-6-methyl-2-thioxo-1,2,3,4-tetrahydro-pyrimidine-5-carboxylic acid 2-[4-(cyclopropyl-ethyl-amino)-3-nitro-phenyl]-ethyl ester] | 0.8 µM | < 1 µM | – |
| CC1=C(C(=O)OCCc2cc(F)cc(F)c2)C(CO)NC(=S)N1 (stereo not shown) [57″, 4-hydroxymethyl-6-methyl-2-thioxo-1,2,3,4-tetrahydro-pyrimidine-5-carboxylic acid 2-(3,5-difluoro-phenyl)-ethyl ester] | 6.4 µM | 1 to 10 µM | – |
| CC1=C(C(=O)OCCc2ccc(F)c(F)c2)C(CF)NC(=S)N1 (stereo not shown) [90′, 4-fluoromethyl-6-methyl-2-thioxo-1,2,3,4-tetrahydro-pyrimidine-5-carboxylic acid 2-(3,4-difluoro-phenyl)-ethyl ester] | 0.8 µM | < 1 µM | – |
